This note sets out measurements from ChEMBL document CHEMBL1201862, “PubChem BioAssay data set” (2004).

For orientation: AC50 means the concentration giving half of the maximal activity seen.

The target in assay [1] is Small ubiquitin-related modifier 2 (Homo sapiens, UniProt P61956). Kind of assay: inhibitors of SUMO2 protein-protein interaction, dose response, selectivity assay for SUMO1 interaction inhibitor project, biochemical, FRET, human SUMO2, uHTS hits (AID 624384). Type of assay: functional. The conditions noted are these: read-out: IC50_Mean.
Assay [2] can be described thus: LGR2 antagonists, dose response, cell-based, HEK293, CRE-luciferase reporter, cherry pick, set 2 (AID 743343).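 Note: transfected cells were stimulated with diluted bursicon conditioned medium after compound addition.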 Type of assay: functional.
The nature of assay [3]: HepG2 cell cytotoxicity, dose response, cytotoxicity control for Shn3 inhibitor project, CellTiter-Glo, cherry-picked (AID 624134). Type of assay: functional, cell-based. (In general: ATP-based viability assays read luminescence as a measure of living cells.)
For assay [4], the target named is T1, Exodeoxyribonuclease V (Escherichia coli (strain K12), UniProt P04993+P07648+P08394).
T1 sequence (P04993 whole entry): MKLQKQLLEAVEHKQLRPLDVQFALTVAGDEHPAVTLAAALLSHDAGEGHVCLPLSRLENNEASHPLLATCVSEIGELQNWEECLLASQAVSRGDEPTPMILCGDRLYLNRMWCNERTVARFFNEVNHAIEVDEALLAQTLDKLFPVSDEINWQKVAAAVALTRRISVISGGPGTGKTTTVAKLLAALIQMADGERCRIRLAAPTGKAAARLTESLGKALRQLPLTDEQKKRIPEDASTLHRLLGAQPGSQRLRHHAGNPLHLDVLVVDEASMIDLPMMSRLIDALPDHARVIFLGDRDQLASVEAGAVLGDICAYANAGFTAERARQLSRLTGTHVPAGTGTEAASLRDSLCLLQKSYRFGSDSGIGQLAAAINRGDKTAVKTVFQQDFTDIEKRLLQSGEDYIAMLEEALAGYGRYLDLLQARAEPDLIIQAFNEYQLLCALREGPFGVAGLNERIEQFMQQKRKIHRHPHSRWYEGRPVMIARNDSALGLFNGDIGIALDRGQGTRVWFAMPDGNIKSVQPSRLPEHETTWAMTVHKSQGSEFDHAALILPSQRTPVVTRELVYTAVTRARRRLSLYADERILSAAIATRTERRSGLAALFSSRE
T1 sequence (P07648 whole entry): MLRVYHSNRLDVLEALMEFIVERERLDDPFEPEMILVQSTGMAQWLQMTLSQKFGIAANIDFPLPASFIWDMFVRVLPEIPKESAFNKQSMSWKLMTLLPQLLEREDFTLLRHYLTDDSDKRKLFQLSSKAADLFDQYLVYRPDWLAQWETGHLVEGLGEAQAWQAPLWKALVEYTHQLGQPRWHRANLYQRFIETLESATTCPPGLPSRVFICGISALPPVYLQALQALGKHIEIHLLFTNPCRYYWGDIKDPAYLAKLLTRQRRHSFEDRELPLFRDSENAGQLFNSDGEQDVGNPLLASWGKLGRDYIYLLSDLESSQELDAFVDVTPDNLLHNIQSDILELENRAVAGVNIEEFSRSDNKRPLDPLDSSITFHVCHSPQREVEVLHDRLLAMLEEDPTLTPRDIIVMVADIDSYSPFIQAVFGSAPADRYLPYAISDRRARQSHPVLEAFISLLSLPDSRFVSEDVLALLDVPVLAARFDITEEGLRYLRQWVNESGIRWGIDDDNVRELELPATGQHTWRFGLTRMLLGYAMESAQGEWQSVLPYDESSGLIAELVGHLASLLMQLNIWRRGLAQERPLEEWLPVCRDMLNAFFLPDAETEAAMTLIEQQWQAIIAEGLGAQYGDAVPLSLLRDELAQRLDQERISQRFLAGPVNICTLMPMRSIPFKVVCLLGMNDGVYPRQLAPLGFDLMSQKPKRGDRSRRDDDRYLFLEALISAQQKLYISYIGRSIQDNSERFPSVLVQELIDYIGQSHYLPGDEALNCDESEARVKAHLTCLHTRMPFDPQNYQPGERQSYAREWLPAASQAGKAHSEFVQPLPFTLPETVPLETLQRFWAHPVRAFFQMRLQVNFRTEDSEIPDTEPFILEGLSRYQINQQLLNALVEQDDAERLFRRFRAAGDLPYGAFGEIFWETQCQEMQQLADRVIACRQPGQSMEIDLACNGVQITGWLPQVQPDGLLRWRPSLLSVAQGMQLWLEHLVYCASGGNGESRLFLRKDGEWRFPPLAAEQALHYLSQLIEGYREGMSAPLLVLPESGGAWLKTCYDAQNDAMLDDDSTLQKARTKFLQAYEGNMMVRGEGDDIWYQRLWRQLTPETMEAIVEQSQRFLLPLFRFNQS
T1 sequence (P08394 whole entry): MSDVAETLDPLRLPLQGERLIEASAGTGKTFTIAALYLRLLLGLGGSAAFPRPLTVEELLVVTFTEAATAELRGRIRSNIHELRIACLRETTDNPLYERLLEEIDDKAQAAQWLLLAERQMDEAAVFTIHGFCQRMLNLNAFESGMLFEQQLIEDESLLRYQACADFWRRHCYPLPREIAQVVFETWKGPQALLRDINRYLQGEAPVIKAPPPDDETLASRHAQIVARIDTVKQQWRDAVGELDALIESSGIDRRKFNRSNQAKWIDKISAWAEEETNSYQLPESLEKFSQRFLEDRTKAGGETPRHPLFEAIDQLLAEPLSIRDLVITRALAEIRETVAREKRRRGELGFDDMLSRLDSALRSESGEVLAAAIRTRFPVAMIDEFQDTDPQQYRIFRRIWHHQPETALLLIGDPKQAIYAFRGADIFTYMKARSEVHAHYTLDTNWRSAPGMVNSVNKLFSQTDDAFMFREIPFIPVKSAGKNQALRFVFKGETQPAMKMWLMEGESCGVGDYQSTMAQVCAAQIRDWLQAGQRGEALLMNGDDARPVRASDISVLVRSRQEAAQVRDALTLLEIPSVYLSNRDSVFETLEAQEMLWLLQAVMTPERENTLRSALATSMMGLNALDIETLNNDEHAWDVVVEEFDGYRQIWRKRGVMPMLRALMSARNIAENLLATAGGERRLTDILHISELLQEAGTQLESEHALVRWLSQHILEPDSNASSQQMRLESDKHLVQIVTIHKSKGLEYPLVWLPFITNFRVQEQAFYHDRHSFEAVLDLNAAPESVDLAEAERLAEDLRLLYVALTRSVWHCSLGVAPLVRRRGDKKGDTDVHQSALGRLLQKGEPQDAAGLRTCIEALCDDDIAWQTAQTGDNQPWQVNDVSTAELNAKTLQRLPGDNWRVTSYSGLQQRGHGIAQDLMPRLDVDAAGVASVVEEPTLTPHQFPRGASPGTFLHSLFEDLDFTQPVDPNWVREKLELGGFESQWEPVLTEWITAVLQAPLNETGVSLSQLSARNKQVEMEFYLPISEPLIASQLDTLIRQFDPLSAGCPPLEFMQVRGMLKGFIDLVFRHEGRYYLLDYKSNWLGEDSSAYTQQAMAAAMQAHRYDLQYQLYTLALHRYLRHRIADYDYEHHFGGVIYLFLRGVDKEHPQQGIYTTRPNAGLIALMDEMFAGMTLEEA
The assay is described as follows: E. coli RecBCD inhibitors, dose response, counter-screen for AddAB inhibitor project, absorbance, V66 E. coli, mutant T4 phage (AID 492957). Type of assay: functional, cell-based, Escherichia coli str. K-12 substr. MG1655. (The purpose of a counterscreen is to sort out artefacts and off-target activity.)

The nature of assay [5]: ZM109 Env clade C HIV-1 fusion inhibitors, dose response, HeLa effector, CEM target cells, luciferase, cherry-pick (AID 652058). Type of assay: functional, cell-based.

The structures appear in SMILES notation. Activity calls are given as the source filed them.

Sequence of Small ubiquitin-related modifier 2 (P61956 whole entry): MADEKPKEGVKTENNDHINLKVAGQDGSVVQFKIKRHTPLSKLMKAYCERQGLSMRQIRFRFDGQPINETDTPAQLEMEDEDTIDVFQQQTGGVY

For `COc1ccc(NS(=O)(=O)c2ccc3c(c2)[C@H]2C=CC[C@H]2[C@@H](c2ccc(C(=O)O)cc2)N3)cc1`, in assay [1], the IC50 was 5.81 µM (active).

As for `Cn1nc(-c2ccccn2)nc2c(=O)n(C)c(=O)nc1-2`, the AC50 in assay [2] is 2.57 µM (active); in assay [3] it was 5.81 µM (active).

As to `CCC(=O)NC(c1ccc(OC)cc1)c1cc(Cl)c2cccnc2c1O` (stereo not given), the IC50 in assay [4] is > 119 µM (inactive).

Consider `CCCCCCCCCCn1c2c(c(=N)c3c1CCC3)CCC2`, for which the half-maximal activity concentration (AC50) in assay [5] was 1.7 µM (active).
